Where “and” joins values, the source holds several entries; their conditions need not be identical. Equal values may be shown once.
Tested on: COR L88 complex tumor spheroid viability
Experiment: Anticancer human tumor COR L88 cell line growth inhibition;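 further: compound exposure lasted 7 days before viability readout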;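 on viability, T/C: percent of DMSO vehicle-treated spheroids = 100%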
Conditions: for viability, T/C: stronger effect = lower value
Procedure, shortened: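 Complex spheroids of malignant cells with endothelial cells and mesenchymal stem cells; agents alone or combined, from near clinical Cmax (or 10 microM if unknown) down in half-log steps, 0.25% DMSO final.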

[1] = curve of first compound, second compound 0.003 µM
[2] = second compound 0.003 µM, first compound 0.0316 µM
[3] = second compound 0.003 µM, first compound 0.1 µM
[4] = second compound 0.003 µM, first compound 0.316 µM
[5] = second compound 0.003 µM, first compound 1 µM
[6] = second compound 0.003 µM, first compound 3.16 µM
[7] = second compound 0.003 µM, first compound 10 µM

COc1ccc([C@@H](O)c2cc(-c3ncnc4cc(N5CCOCC5)ccc34)c(F)cc2Cl)nn1 + CC[C@@]1(O)C(=O)OCc2c1cc1n(c2=O)Cc2cc3c(CN(C)C)c(O)ccc3nc2-1
IC50 [1]: 3180 nM
IC50 (curve of first compound, second compound 0.00949 µM): 4000 nM
IC50 (curve of first compound, second compound 0.03 µM): 98.3 nM
IC50 (curve of first compound, second compound 0.0949 µM): 122 nM
IC50 (curve of first compound, second compound 0.3 µM): 132 nM
viability, T/C [2]: 96.3%
viability, T/C [3]: 101%
viability, T/C [4]: 94.2%
viability, T/C [5]: 71.8%
viability, T/C [6]: 52.3%
viability, T/C [7]: 34.6%
viability, T/C (second compound 0.00949 µM, first compound 0.0316 µM): 68.3%
viability, T/C (second compound 0.00949 µM, first compound 0.1 µM): 68.7%
viability, T/C (second compound 0.00949 µM, first compound 0.316 µM): 67.9%
viability, T/C (second compound 0.00949 µM, first compound 1 µM): 57.6%
viability, T/C (second compound 0.00949 µM, first compound 3.16 µM): 52.9%
viability, T/C (second compound 0.00949 µM, first compound 10 µM): 40.6%
viability, T/C (second compound 0.03 µM, first compound 0.0316 µM): 53.1%
viability, T/C (second compound 0.03 µM, first compound 0.1 µM): 53.6%
viability, T/C (second compound 0.03 µM, first compound 0.316 µM): 46.6%
viability, T/C (second compound 0.03 µM, first compound 1 µM): 40.1%
viability, T/C (second compound 0.03 µM, first compound 3.16 µM): 32%
viability, T/C (second compound 0.03 µM, first compound 10 µM): 38.5%
viability, T/C (second compound 0.0949 µM, first compound 0.0316 µM): 55.3%
viability, T/C (second compound 0.0949 µM, first compound 0.1 µM): 53.2%
viability, T/C (second compound 0.0949 µM, first compound 0.316 µM): 45.2%
viability, T/C (second compound 0.0949 µM, first compound 1 µM): 40.5%
viability, T/C (second compound 0.0949 µM, first compound 3.16 µM): 31.8%
viability, T/C (second compound 0.0949 µM, first compound 10 µM): 31.7%
viability, T/C (second compound 0.3 µM, first compound 0.0316 µM): 54.2%
viability, T/C (second compound 0.3 µM, first compound 0.1 µM): 51%
viability, T/C (second compound 0.3 µM, first compound 0.316 µM): 43.9%
viability, T/C (second compound 0.3 µM, first compound 1 µM): 37.6%
viability, T/C (second compound 0.3 µM, first compound 3.16 µM): 18.6%
viability, T/C (second compound 0.3 µM, first compound 10 µM): 8.14%

CC(C)n1c(=O)n(C)c2cnc3cc(F)c(-c4ccc(OCCCN5CCCCC5)nc4)cc3c21
viability, T/C (compound 0.0316 µM): 103% and 92.5% and 102%
viability, T/C (compound 0.1 µM): 113% and 103% (2×)
viability, T/C (compound 0.316 µM): 110% and 99.5% and 98.2%
viability, T/C (compound 1 µM): 94.8% and 88.6% and 99%
viability, T/C (compound 3.16 µM): 95.3% and 89.8% and 87.5%
viability, T/C (compound 10 µM): 56.5% and 61% and 56.6%
IC50 (curve of compound): > 10000 nM

CC1COCCN1c1cc(-c2ccnn2C)c2ccnc(-c3ccn[nH]3)c2n1 (centres undefined) + COc1cc2c(cc1O)CCNC21CSC2c3c(OC(C)=O)c(C)c4c(c3C(COC1=O)N1C(O)C3Cc5cc(C)c(OC)c(O)c5C(C21)N3C)OCO4
IC50 (curve of first compound, second compound 30 pM): 111 nM
IC50 (curve of first compound, second compound 94.9 pM): < 31.6 nM
IC50 (curve of first compound, second compound 0.0003 µM): < 31.6 nM
IC50 (curve of first compound, second compound 0.000949 µM): < 31.6 nM
IC50 [1]: < 31.6 nM
viability, T/C (second compound 30 pM, first compound 0.0316 µM): 72.1%
viability, T/C (second compound 30 pM, first compound 0.1 µM): 49.5%
viability, T/C (second compound 30 pM, first compound 0.316 µM): 36.7%
viability, T/C (second compound 30 pM, first compound 1 µM): 20.3%
viability, T/C (second compound 30 pM, first compound 3.16 µM): 7.72%
viability, T/C (second compound 30 pM, first compound 10 µM): 3.13%
viability, T/C (second compound 94.9 pM, first compound 0.0316 µM): 41.8%
viability, T/C (second compound 94.9 pM, first compound 0.1 µM): 36.9%
viability, T/C (second compound 94.9 pM, first compound 0.316 µM): 25.6%
viability, T/C (second compound 94.9 pM, first compound 1 µM): 17.2%
viability, T/C (second compound 94.9 pM, first compound 3.16 µM): 6.6%
viability, T/C (second compound 94.9 pM, first compound 10 µM): 2.46%
viability, T/C (second compound 0.0003 µM, first compound 0.0316 µM): 28.6%
viability, T/C (second compound 0.0003 µM, first compound 0.1 µM): 25.4%
viability, T/C (second compound 0.0003 µM, first compound 0.316 µM): 19.9%
viability, T/C (second compound 0.0003 µM, first compound 1 µM): 11%
viability, T/C (second compound 0.0003 µM, first compound 3.16 µM): 3.54%
viability, T/C (second compound 0.0003 µM, first compound 10 µM): 1.58%
viability, T/C (second compound 0.000949 µM, first compound 0.0316 µM): 6.86%
viability, T/C (second compound 0.000949 µM, first compound 0.1 µM): 7.07%
viability, T/C (second compound 0.000949 µM, first compound 0.316 µM): 3.61%
viability, T/C (second compound 0.000949 µM, first compound 1 µM): 2.02%
viability, T/C (second compound 0.000949 µM, first compound 3.16 µM): 0.7%
viability, T/C (second compound 0.000949 µM, first compound 10 µM): 0.25%
viability, T/C [2]: 0.56%
viability, T/C [3]: 0.53%
viability, T/C [4]: 0.53%
viability, T/C [5]: 0.41%
viability, T/C [6]: 0.58%
viability, T/C [7]: 0.58%

CC1COCCN1c1cc(-c2ccnn2C)c2ccnc(-c3ccn[nH]3)c2n1 (centres undefined)
viability, T/C (compound 0.0316 µM): 94.4% and 93.6% and 97.8%
viability, T/C (compound 0.1 µM): 59.7% and 70.8% and 77%
viability, T/C (compound 0.316 µM): 34.2% and 52% and 53.1%
viability, T/C (compound 1 µM): 22.5% and 30.1% and 36%
viability, T/C (compound 3.16 µM): 9.11% and 13.8% and 14.6%
viability, T/C (compound 10 µM): 3.91% and 5.8% and 5.02%
IC50 (curve of compound): 159 nM and 319 nM and 403 nM

From PubChem BioAssay AID1845201 (Molecular Pharmacology Branch, DTP, NCI, 2023)
